The compounds below were run against PHGDH (Homo sapiens (Human), UniProt O43175) (assay: PHGDH inhibition, coupled assay with PSAT1/PSPH and diaphorase/resazurin readout). Conditions: Table E9; mixture with PSAT1, PSPH; diaphorase/resazurin reporter.
Assay type: biochemical
Procedure: Compounds of the invention were assayed for inhibition of the activity phosphoglycerate dehydrogenase (PHGDH). The compounds were assayed in a mixture comprising PHGDH, PSAT1, PSPH, NADH, and glutamate. Diaphorase and resazurin were used as a fluorescent reporter system.
In this endogenous pathway coupled assay, the production of NADH by PHGDH was measured through the diaphorasemediated reduction of resazurin (See, e.g., Chakraborty, S., Sakka, M., Kimura, T. & Sakka, K. “Characterization of a dihydrolipoyl dehydrogenase having diaphorase activity of Clostridium kluyveri.” BioscL Biotechnol. Biochem. 72, 982-988 (2008)).
PHGDH assay buffer contained 50 mM TEA pH 8.0, 10 mM MgCl2, 0.05% BSA, and 0.01% Tween-20. PHGDH enzyme buffer consisted of assay buffer with 20 nM PHGDH and 0.2 mg/mL diaphorase. PHGDH substrate buffer contained 0.3 mM NAD 1.25 mM glutamate, 0.1 mM 3-phosphoglycerate, 0.2 mM resazurin, 1 μM PSAT1, and 1 μM PSPH. qHTS was performed in 1536-well plates dispensed with a BioRAPTR FRD. Each well contained equal volumes of substrate buffer and assay buffer. Plates were read at 0 minutes and 20 minutes at room temperature with a ViewLux uHTS Microplate Imager (PerkinElmer). Follow-up assays were performed in black 384-well plates (Greiner) in 20 μL of enzyme buffer to which compounds were added in dose-response with an HP D300 digital dispenser (Hewlett-Packard), followed by addition of 20 μL of substrate buffer. Plates were incubated at room temperature (25° C.) and read at 0 and 20 minutes with a Spectramax M5 plate reader (Molecular Devices) in fluorescence intensity mode with a λex=550 nm and λem=600 nm (emission cutoff=590 nm).

Sequence of PHGDH (O43175 whole entry): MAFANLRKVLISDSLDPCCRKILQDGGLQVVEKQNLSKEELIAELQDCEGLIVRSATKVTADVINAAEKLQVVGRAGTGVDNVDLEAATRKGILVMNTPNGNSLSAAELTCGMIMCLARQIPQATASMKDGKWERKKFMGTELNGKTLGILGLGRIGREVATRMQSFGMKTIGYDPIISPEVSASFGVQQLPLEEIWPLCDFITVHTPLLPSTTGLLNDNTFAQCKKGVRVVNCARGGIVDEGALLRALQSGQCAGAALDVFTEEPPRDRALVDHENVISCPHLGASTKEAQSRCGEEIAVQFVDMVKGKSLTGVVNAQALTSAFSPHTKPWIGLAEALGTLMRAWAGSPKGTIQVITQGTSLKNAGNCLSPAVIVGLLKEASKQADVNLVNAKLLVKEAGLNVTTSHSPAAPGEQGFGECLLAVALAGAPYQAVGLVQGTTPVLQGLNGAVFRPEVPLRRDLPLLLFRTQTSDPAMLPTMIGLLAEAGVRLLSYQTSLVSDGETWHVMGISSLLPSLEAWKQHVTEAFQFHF

IC50 [µM]	SMILES
≥ 20	FC(F)(F)c1cccc(N2CCN(C(=S)Nc3nc[nH]n3)CC2)c1 [Compound 234]
≥ 20	CCOC(=O)N1CCN(C(=S)Nc2cc(C)cc(C)n2)CC1 [Compound 259]
≥ 20	Cc1cc(C)nc(NC(=S)N2CCC(C(=O)N3CCCCC3)CC2)c1 [Compound 260]
10 to 20	Cc1cc(C)nc(NC(=S)N2CCN(c3ccc(Cl)cc3C(F)(F)F)CC2)c1 [Compound 210]
< 5	Cc1cc(C)nc(NC(=S)N2CCN(Cc3ccc(OC(F)(F)F)cc3)CC2)c1 [Compound 296]
10 to 20	Cc1cc(C)nc(NC(=S)N2CCN(Cc3ccccc3Cl)CC2)c1 [Compound 289]
< 5	Cc1cc(C)nc(NC(=S)N2CCC(Cc3ccccc3)CC2)c1 [Compound 254]
< 5	Cc1cccc2nc(NC(=S)N3CCN(c4cccc(C(F)(F)F)c4)CC3)[nH]c12 [Compound 247]
< 5	Cc1cc(C)nc(NC(=S)N2CCC(NC(=O)c3ccc(C(F)(F)F)cc3)CC2)c1 [Compound 266]
10 to 20	Cc1cc(C)nc(NC(=S)N2CCN(Cc3cccc(F)c3)CC2)c1 [Compound 277]
5 to 10	Cc1cc(C)nc(NC(=S)N2CCN(Cc3ccc(C(F)(F)F)cc3)C(C(=O)O)C2)c1 (stereo not drawn) [Compound 295, 4-((4,6-dimethylpyridin-2-yl)carbamothioyl)-1-(4-(trifluoromethyl)benzyl)piperazine-2-carboxylic acid]
5 to 10	FC(F)(F)c1cccc(N2CCN(C(=S)Nc3cc[nH]n3)CC2)c1 [Compound 236]
≥ 20	Cc1cc(C)nc(NC(=S)N2CCN(c3ccc(Cl)c(Cl)c3Cl)CC2)c1 [Compound 221]
< 5	Cc1cc(C)nc(NC(=S)N2CCN(C(=O)c3ccc(C(F)(F)F)cc3)CC2)c1 [Compound 265]
< 5	Cc1cc(C)nc(NC(=S)N2CCN(Cc3cccc(OC(F)(F)F)c3)CC2)c1 [Compound 299]
5 to 10	Cc1cc(C)nc(NC(=S)N2CCN(Cc3ccc(C)c(C(F)(F)F)c3)CC2)c1 [Compound 302]
10 to 20	COc1cc(OC)cc(N2CCN(C(=S)Nc3cc(C)cc(C)n3)CC2)c1 [Compound 216]
< 5	Cc1ccc2nc(NC(=S)N3CCN(c4cccc(C(F)(F)F)c4)CC3)[nH]c2c1 [Compound 242]
5 to 10	Cc1cc(C)nc(NC(=S)N2CCN(c3ccc(Cl)cc3F)CC2)c1 [Compound 219]
10 to 20	COc1ccc(CN2CCN(C(=S)Nc3cc(C)cc(C)n3)CC2)cc1 [Compound 293]
5 to 10	FC(F)(F)c1cccc(N2CCN(C(=S)Nc3nc4ccc(C(F)(F)F)cc4[nH]3)CC2)c1 [Compound 246]
< 5	FC(F)(F)c1cccc(N2CCN(C(=S)Nc3nc4ccccc4[nH]3)CC2)c1 [Compound 228]
10 to 20	Cc1cc(C)nc(NC(=S)N2CCN(Cc3ccccc3)CC2)c1 [Compound 274]
10 to 20	Cc1cc(C)nc(NC(=S)N2CCN(Cc3ccccc3Br)CC2)c1 [Compound 285]
10 to 20	Cc1cc(C)nc(NC(=S)N2CCN(c3ccc(Cl)c(C(F)(F)F)c3)CC2)c1 [Compound 211]
≥ 20	Cc1cc(C)nc(NC(=S)N2CCC(CN3CCCCC3)CC2)c1 [Compound 271]
≥ 20	Cc1cc(C)nc(NC(=S)N2CCN(CC3CC3)CC2)c1 [Compound 301]
≥ 20	Cc1cc(C)nc(NC(=S)N2CCN(CCN3CCCCC3)CC2)c1 [Compound 256]

Continued, compound first:

SMILES	IC50 [µM]
Cc1cc(C)nc(NC(=S)N2CCN(c3cccc([S+](C)(=O)[O-])c3)CC2)c1 [Compound 140]	≥ 20
COc1ccc(NC(=S)N2CCN(c3cccc(C(F)(F)F)c3)CC2)nc1 [Compound 37]	≥ 20
Cc1ccnc(NC(=S)N2CCN(c3cc(Cl)cc(Cl)c3)CC2)c1 [Compound 169]	5 to 10
S=C(Nc1cc(Cl)ccn1)N1CCN(c2ccc3ccccc3n2)CC1 [Compound 203]	≥ 20
COc1cccc(NC(=S)N2CCN(c3ccc(Cl)cc3Cl)CC2)n1 [Compound 190]	< 5
Cc1cc(C)nc(NC(=S)N2CCN(c3ccc4nonc4c3)CC2)c1 [Compound 159]	≥ 20
O=[N+]([O-])c1cc(C(F)(F)F)ccc1N1CCN(C(=S)Nc2cc(Cl)ccn2)CC1 [Compound 201]	10 to 20
Cc1ccnc(NC(=S)N2CCN(c3cccc(N(C)C)c3)CC2)c1 [Compound 6]	10 to 20
Cc1cc(C)nc(NC(=S)N2CCN(c3ccc4c(c3)OCO4)CC2)c1 [Compound 167]	≥ 20
Cc1cc(C)nc(NC(=S)N2CCN(c3cccc(OC(F)F)c3)CC2)c1 [Compound 135]	< 5
Cc1ccnc(NC(=S)NCCN(C)c2cccc(C(F)(F)F)c2)c1 [Compound 21]	≥ 20
FC(F)(F)c1cccc(N2CCN(C(=S)Nc3ccccn3)CC2)c1 [Compound 35]	5 to 10
COc1ccnc(NC(=S)N2CCN(c3ccccc3C(F)(F)F)CC2)c1 [Compound 183]	5 to 10
Cc1ccnc(NC(=S)N2CCCc3ccc(C(F)(F)F)cc32)c1 [Compound 60]	≥ 20
COc1ccnc(NC(=S)N2CCN(c3cc(C(F)(F)F)cc(C(F)(F)F)c3)CC2)c1 [Compound 179]	< 5
Cc1cc(C)nc(NC(=S)N2CCN(c3ccc(N[S+](C)(=O)[O-])nn3)CC2)c1 [Compound 83]	≥ 20
Cc1ccnc(NC(=S)N2CCN(c3cccc(C(F)(F)F)n3)CC2)c1 [Compound 175]	< 5
Cc1ccnc(NC(=S)N2CCN(c3cc(C(F)(F)F)cc(C(F)(F)F)c3)CC2)c1 [Compound 170]	5 to 10
Cc1ccnc(NC(=S)N2CCN(c3ccc(Cl)cc3Cl)CC2)c1 [Compound 172]	5 to 10
Cc1cc(C)nc(NC(=S)N2CCN(c3cccc4ccccc34)CC2)c1 [Compound 69]	5 to 10

SMILES	IC50 [µM]
Cc1cc(C)nc(NC(=S)N2CCN(c3ccc4nsnc4c3)CC2)c1 [Compound 163]	10 to 20
COc1cccc(NC(=S)N2CCN(c3cccc(C(F)(F)F)n3)CC2)n1 [Compound 194]	5 to 10
FC(F)(F)c1cccc(N2CCN(C(=S)Nc3nccc4ccccc34)CC2)c1 [Compound 32]	5 to 10
COc1cccc(NC(=S)N2CCN(c3ccccc3C(F)(F)F)CC2)n1 [Compound 193]	< 5
Cc1cc(C)nc(NC(=S)N2CCN(c3nnc(C(F)(F)F)s3)CC2)c1 [Compound 107]	10 to 20
Cc1cc(C)nc(NC(=S)N2CCN(c3ccccc3C#N)CC2)c1 [Compound 89]	10 to 20
FC(F)(F)c1cc(N2CCN(C(=S)Nc3cc(Cl)ccn3)CC2)cc(C(F)(F)F)c1 [Compound 198]	≥ 20
FC(F)(F)c1cccc(N2CCN(C(=S)Nc3ncnc4ccccc34)CC2)c1 [Compound 143]	5 to 10
Cc1ccnc(NC(=S)N2CCN(c3ccc(C(F)(F)F)cc3[N+](=O)[O-])CC2)c1 [Compound 174]	5 to 10
Cc1ccnc(NC(=S)N2CCN(c3cccc([N+](=O)[O-])c3)CC2)c1 [Compound 5]	≥ 20
Cc1cc(C)nc(NC(=S)N2CCN(c3cc(Cl)cc(C(F)(F)F)c3)CC2)c1 [Compound 137]	10 to 20
S=C(Nc1cc(Cl)ccn1)N1CCN(c2cc(Cl)cc(Cl)c2)CC1 [Compound 197]	≥ 20
Cc1cncc(NC(=S)N2CCN(c3cccc(C(F)(F)F)c3)CC2)c1 [Compound 29]	5 to 10
Cc1cc(C)nc(NC(=S)N2CCN(c3ncccc3C#N)CC2)c1 [Compound 121]	≥ 20
COc1ccc(N2CCN(C(=S)Nc3cc(C)ccn3)CC2)cc1 [Compound 12]	≥ 20
FC(F)(F)c1cccc(N2CCN(C(=S)Nc3ccncc3)CC2)c1 [Compound 31]	10 to 20
Cc1cc(C)nc(NC(=S)N2CCN(c3ccc(C(F)(F)F)cc3[N+](=O)[O-])CC2)c1 [Compound 110]	5 to 10
Cc1cc(C)nc(NC(=S)N2CCN(c3ccsc3)CC2)c1 [Compound 166]	≥ 20
Cc1ccnc(NC(=S)N2CCN(c3ncc(C(F)(F)F)cc3Cl)CC2)c1 [Compound 176]	5 to 10
Cc1cc(C)nc(NC(=S)N2CCN(c3ccc4ccccc4n3)CC2)c1 [Compound 85]	10 to 20

SMILES	IC50 [µM]
COc1cccc(NC(=S)N2CCN(c3ccc(Cl)c(Cl)c3)CC2)n1 [Compound 191]	≥ 20
Cc1ccnc(NC(=S)N2CCC(Nc3cccc(C(F)(F)F)c3)CC2)c1 [Compound 56]	5 to 10
S=C(Nc1cc(Cl)ccn1)N1CCN(c2ccc(Cl)cc2Cl)CC1 [Compound 199]	≥ 20
Cc1cc(C)nc(NC(=S)N2CCN(c3nccc(C(F)(F)F)n3)CC2)c1 [Compound 117]	< 5
Cc1cc(C)nc(NC(=S)N2CCN(c3cccc(C(F)(F)F)c3)CC2)c1 [Compound 24]	5 to 10
Cc1ccnc(NC(=S)N2CCN(c3ccc(Cl)cc3)CC2)c1 [Compound 8]	≥ 20
Cc1ccnc(NC(=S)N2CC[C@@H](Nc3cccc(C(F)(F)F)c3)C2)c1 [Compound 55]	≥ 20
Cc1cc(C)nc(NC(=S)N2CCN(c3cc(C#N)cc(C#N)c3)CC2)c1 [Compound 205]	≥ 20
Cc1ccnc(NC(=S)N2CCN(c3ccc(Br)cc3)CC2)c1 [Compound 9]	≥ 20
Cc1ccnc(NC(=S)N2CCc3ccccc3C2)c1 [Compound 51]	≥ 20
S=C(Nc1cc(Cl)ccn1)N1CCN(c2ccc(Cl)c(Cl)c2)CC1 [Compound 200]	10 to 20
Cc1cc(C)nc(NC(=S)N2CCN(c3ccc4ccccc4c3)CC2)c1 [Compound 70]	5 to 10
Cc1cc(C)nc(NC(=S)N2CCN(c3cncs3)CC2)c1 [Compound 157]	≥ 20
Cc1cc(C)nc(NC(=S)N2CCN(c3cc(C(F)(F)F)cc(C(F)(F)F)c3)CC2)c1 [Compound 64]	5 to 10
COc1cccc(NC(=S)N2CCN(c3ccc4ccccc4n3)CC2)n1 [Compound 196]	≥ 20
Cc1cc(C)nc(NC(=S)N2CCN(c3cccc4[nH]ccc34)CC2)c1 [Compound 155]	10 to 20
Cc1cc(NC(=S)N2CCN(c3cccc(C(F)(F)F)c3)CC2)nc2ccccc12 [Compound 127]	≥ 20
Cc1cc(C)nc(NC(=S)N2CCN(c3nccc4ccsc34)CC2)c1 [Compound 156]	≥ 20
Cc1cccc(NC(=S)N2CCN(c3cccc(C(F)(F)F)c3)CC2)c1 [Compound 23]	≥ 20
